Tested on: SRS-A
Experiment: Inhibitory action on the generation and release of SRS-A (sensitized guinea pig lung fragment; method of Orange and Moore, SRS-A assayed by method of Brocklehurst)
Type: cell-based, guinea pig (Hartley strain)
Details: egg albumin antigen
Source text: The action of the antiallergic agent of this invention to inhibit the production of SRS-A was investigated by the method of Orange and Moore [J. Immunol.

baicalein phosphate disodium [BPS]
Inhibitory action (percent inhibition of generation and release of SRS-A due to antigen-antibody interaction) (concentration 10 (so in the source)): 18.7 ± 6.6%
Inhibitory action (percent inhibition of generation and release of SRS-A due to antigen-antibody interaction) (concentration 100 (so in the source)): 50.8 ± 10.7%

Reference: US4358461A, “Antiallergic agent” (Takeda Chemical Industries, Ltd., priority 1980, dated 1982)
